Laboratory results reported in paper PMC11448502, “Cryo-EM structures of the human P2X1 receptor reveal subtype-specific architecture and antagonism by supramolecular ligand-binding” (Nature Communications, 2024).
Changes are numbered by the printed parent chain. Where “and” joins values, the source holds several entries; their conditions need not be identical. Identical values can stand only once.

Columns and labels:
Assay type in all cases: cell-based
hP2X1 WT = molecular target: T1, hP2X1 WT (Homo sapiens, UniProt P51575); test: NF449 inhibition dose response (IC50), TEVC in oocytes
T1 construct: hP2X1 mRNA that was made from linearized full-length wild-type or mutant pcDNA 3.1x; expressed in transfected cells; host or cells: Xenopus laevis oocytes (mRNA injection)
T1 sequence (P51575 1-399): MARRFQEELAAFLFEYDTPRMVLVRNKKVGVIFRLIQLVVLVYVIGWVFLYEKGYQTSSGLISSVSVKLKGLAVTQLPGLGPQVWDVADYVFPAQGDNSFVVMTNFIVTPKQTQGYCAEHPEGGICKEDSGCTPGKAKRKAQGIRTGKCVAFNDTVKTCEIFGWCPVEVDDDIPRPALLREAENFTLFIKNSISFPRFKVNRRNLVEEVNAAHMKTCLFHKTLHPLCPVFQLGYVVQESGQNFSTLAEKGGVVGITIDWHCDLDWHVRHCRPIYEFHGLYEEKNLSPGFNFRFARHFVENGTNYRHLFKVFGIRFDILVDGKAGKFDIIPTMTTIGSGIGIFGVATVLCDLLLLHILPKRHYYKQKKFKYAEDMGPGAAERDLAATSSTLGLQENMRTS
Experimental: (§1) Oocytes were purchased defolliculated from Ecocyte Bioscience in Barth’s Solution (88 mM NaCl, 1 mM KCl, 0.82 mM MgSO4, 0.33 mM Ca(NO3)2, 0.41 mM CaCl2, 2.4 mM NaHCO3, 5 mM Tris-HCl) supplemented with penicillin (100 U/mL) and streptomycin (100 µg/mL). Xenopus laevis oocytes were then injected with 50 nL of 100 ng/μL hP2X1 mRNA that was made from linearized full-length wild-type or mutant pcDNA 3.1x according to the protocol provided in the mMessage mMachine kit (Invitrogen). Injected oocytes were allowed to express for ~20 hours at 18 °C before recording was performed.
(§2) Data acquisition was performed using the Oocyte Clamp OC-725C amplifier and pClamp 8.2 software. Buffers were applied using a gravity fed RSC-200 Rapid Solution Changer that flows at ~5 mL/min. All experiments use Sutter filamented glass 10 cm in length with an inner diameter of 0.69 mm and an outer diameter of 1.2 mm to impale oocytes and clamp the holding voltage at −60 mV. Experiments were recorded in buffer containing 10 mM HEPES (pH 7.4), 140 mM NaCl, 5 mM KCl, 2 mM CaCl2, 2 mM MgCl2, and 10 mM glucose.
(§3) To test a dilution series of an antagonist at discrete concentrations, 10 µM ATP (2 mM ATP for K309A only) was first applied to evoke an initial maximum current. The oocyte was then washed with buffer for one minute, followed by one minute application of an antagonist test-concentration, and concluded by co-application of the same test concentration with 10 µM ATP (2 mM ATP for K309A). The antagonized signal was then normalized against the initial ATP excitatory signal. Each test concentration was performed in triplicate across different oocytes. The data was then fit to a nonlinear regression named “[inhibitor] vs. response – Variable slope (four parameters)” in Prism 9 to produce a sigmoidal curve and afford an IC50 value. Each singular condition was used to generate an average which is reported plus or minus its standard deviation between three discrete trials.

hP2X1 K309A = molecular target: T2, hP2X1 K309A (Homo sapiens, UniProt P51575, K309A); test: as above; details: for Normalized Current: hP2X1 K309A
T2 construct: hP2X1 mRNA that was made from linearized full-length wild-type or mutant pcDNA 3.1x; expressed in transfected cells; host or cells: Xenopus laevis oocytes (mRNA injection)
T2 sequence (P51575 1-399 K309A): T1 sequence (P51575 1-399) with K309A
Experimental: as §1, §2, §3

hP2X1 K136A = molecular target: T3, hP2X1 K136A (Homo sapiens, UniProt P51575, K136A); test: as above; details: for Normalized Current: hP2X1 K136A
T3 construct: hP2X1 mRNA that was made from linearized full-length wild-type or mutant pcDNA 3.1x; expressed in transfected cells; host or cells: Xenopus laevis oocytes (mRNA injection)
T3 sequence (P51575 1-399 K136A): T1 sequence (P51575 1-399) with K136A
Experimental: as §1, §2, §3

hP2X3 WT = molecular target: T4, hP2X3 WT (Homo sapiens, UniProt P56373); test: ATP dose response (EC50), TEVC in oocytes
T4 construct: expressed in transfected cells
T4 sequence (P56373 1-397): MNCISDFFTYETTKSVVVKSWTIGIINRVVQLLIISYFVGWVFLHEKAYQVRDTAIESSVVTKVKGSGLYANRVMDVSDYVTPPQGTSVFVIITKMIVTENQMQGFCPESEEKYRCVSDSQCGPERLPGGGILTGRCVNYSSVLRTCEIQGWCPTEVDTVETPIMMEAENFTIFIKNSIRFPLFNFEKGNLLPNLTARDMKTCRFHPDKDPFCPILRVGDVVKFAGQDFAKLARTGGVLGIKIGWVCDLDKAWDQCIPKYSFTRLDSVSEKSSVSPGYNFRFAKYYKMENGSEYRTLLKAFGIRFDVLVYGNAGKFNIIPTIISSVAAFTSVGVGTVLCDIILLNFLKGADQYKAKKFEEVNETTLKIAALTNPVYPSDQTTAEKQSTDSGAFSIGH

## O=C(Nc1cc(C(=O)Nc2ccc(S(=O)(=O)O)cc2S(=O)(=O)O)cc(C(=O)Nc2ccc(S(=O)(=O)O)cc2S(=O)(=O)O)c1)Nc1cc(C(=O)Nc2ccc(S(=O)(=O)O)cc2S(=O)(=O)O)cc(C(=O)Nc2ccc(S(=O)(=O)O)cc2S(=O)(=O)O)c1 [NF449, 4,4’,4”,4’’’-(carbonylbis(imino-5,1,3-benzenetriylbis(carbonylimino)))tetrakis-benzene-1,3-disulfonic acid]
hP2X1 WT; [NF449] 1.600E-10 M
  Normalized Current: 0.9675 and 0.945 and 0.9562
hP2X1 WT; [NF449] 3.200E-11 M
  Normalized Current: 1.007 and 0.9213 and 1.004
hP2X1 WT; [NF449] 6.400E-12 M
  Normalized Current: 1.049 and 0.9637 and 0.9878
hP2X1 WT; [NF449] 8.000E-10 M
  Normalized Current: 0.5214 and 0.4548 and 0.5008
hP2X1 K309A; hP2X1 K309A vs wild-type
  reduction in inhibitory potency (IC50) of NF449: 5 fold
hP2X1 K309A; [NF449] 1.600E-09 M
  Normalized Current: 0.804 and 0.6904 and 0.632
hP2X1 K309A; [NF449] 3.200E-10 M
  Normalized Current: 1.021 and 0.9283 and 0.8888
hP2X1 K309A; [NF449] 6.400E-11 M
  Normalized Current: 1.062 and 1.037 and 0.9009
hP2X1 K309A; [NF449] 8.000E-09 M
  Normalized Current: 0.3679 and 0.3618 and 0.2758
hP2X1 K136A; hP2X1 K136A vs wild-type
  reduction in inhibitory potency (IC50) of NF449: 39 fold
hP2X1 K136A; [NF449] 1.600E-09 M
  Normalized Current: 1
hP2X1 K136A; [NF449] 2.000E-07 M
  Normalized Current: 0.205 and 0.1861 and 0.1104
hP2X1 K136A; [NF449] 3.200E-10 M
  Normalized Current: 0.9716 and 0.9527 and 0.8864
hP2X1 K136A; [NF449] 4.000E-08 M
  Normalized Current: 0.5079 and 0.4606 and 0.4322
hP2X1 K136A; [NF449] 8.000E-09 M
  Normalized Current: 0.7634 and 0.7445 and 0.5647

## Nc1ncnc2c1ncn2[C@@H]1O[C@H](COP(=O)(O)OP(=O)(O)OP(=O)(O)O)[C@@H](O)[C@H]1O [ATP]
hP2X3 WT; TEVC
  EC50: 800 ± 100 nM
hP2X3 WT; [ATP] 1.000E-04 M
  Normalized Current: 1.024 and 0.937 and 0.934
hP2X3 WT; [ATP] 1.563E-06 M
  Normalized Current: 0.9021 and 0.8096 and 0.6657
hP2X3 WT; [ATP] 2.500E-05 M
  Normalized Current: 1.229 and 0.9489 and 0.8224
hP2X3 WT; [ATP] 3.906E-07 M
  Normalized Current: 0.1693 and 0.1661 and 0.1374
hP2X3 WT; [ATP] 6.250E-06 M
  Normalized Current: 0.9276 and 0.9021 and 0.8266
hP2X3 WT; [ATP] 9.766E-08 M
  Normalized Current: 0.0748 and 0.0739 and 0.04276
hP2X3 WT; mean ± SD of three EC50 traces
  Hill slope of activation by ATP: 2.5 ± 0.6
